According to the supplement of paper PMC11061612:

Legend:
[1] = tested on: NCI-H2141 (Small Cell Lung Carcinoma); test: Bliss excess, mean over the matrix (fraction); higher = more synergy
Procedure, shortened: (§1)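 After 24 hours at 37°C and 5% CO2 in 1536-well plates, cells in DMEM/F12 or RPMI plus 10% FBS received two-drug dose matrices for 72 hours. Viability came from CellTiter-Glo 2.0 luminescence and was scaled as inhibition, anchored at 0 by vehicle wells and at 1 by blank wells. Combination Emax is taken as the second-highest inhibition in the matrix, and Bliss excess as the observed combination effect less EA + EB − EA·EB, with EA and EB the single-agent effects.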

[2] = tested on: OS-RC-2 (Kidney Carcinoma); test: as above
Procedure, shortened: as §1

[3] = tested on: PANC-10-05 (Pancreatic Carcinoma); test: as above
Procedure, shortened: as §1

[4] = tested on: CAL-29 (Bladder Carcinoma); test: combination Emax (second highest fraction inhibited in the dose matrix, 72 h); higher = more inhibition; extreme values may be limits of the assay
Procedure, shortened: as §1

[5] = tested on: CCK-81 (Colorectal Carcinoma); test: as above
Procedure, shortened: as §1

[6] = tested on: COLO-320-HSR (Colorectal Carcinoma); test: as above
Procedure, shortened: as §1

[7] = tested on: COLO-824 (Breast Carcinoma); test: as above
Procedure, shortened: as §1

[8] = tested on: COR-L311 (Small Cell Lung Carcinoma); test: as above
Procedure, shortened: as §1

[9] = tested on: FU97 (Gastric Carcinoma); test: as above
Procedure, shortened: as §1

[10] = tested on: IGR-37 (Melanoma); test: as above
Procedure, shortened: as §1

[11] = tested on: KARPAS-422 (B-Cell Non-Hodgkin's Lymphoma); test: as above
Procedure, shortened: as §1

[12] = tested on: LN-405 (Glioblastoma); test: as above
Procedure, shortened: as §1

[13] = tested on: MDST8 (Colorectal Carcinoma); test: as above
Procedure, shortened: as §1

[14] = tested on: NCI-H1581 (Non-Small Cell Lung Carcinoma); test: as above
Procedure, shortened: as §1

[15] = tested on: NCI-H1693 (Lung Adenocarcinoma); test: as above
Procedure, shortened: as §1

[16] = tested on: NCI-H2066 (Squamous Cell Lung Carcinoma); test: as above
Procedure, shortened: as §1

[17] = tested on: PA-1 (Ovarian Carcinoma); test: as above
Procedure, shortened: as §1

[18] = tested on: SISO (Cervical Carcinoma); test: as above
Procedure, shortened: as §1

[19] = tested on: TT (Thyroid Gland Carcinoma); test: as above
Procedure, shortened: as §1

[20] = tested on: VCaP (Prostate Carcinoma); test: as above
Procedure, shortened: as §1
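Throughout, for Bliss excess, mean over the matrix: after 72 h of two-drug dosing.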

Row | SMILES | Bliss excess [1] | Bliss excess [2] | Bliss excess [3] | combination Emax [4] | combination Emax [5] | combination Emax [6] | combination Emax [7] | combination Emax [8] | combination Emax [9] | combination Emax [10] | combination Emax [11] | combination Emax [12] | combination Emax [13] | combination Emax [14] | combination Emax [15] | combination Emax [16] | combination Emax [17] | combination Emax [18] | combination Emax [19] | combination Emax [20]
1 | C=CCn1c(=O)c2cnc(Nc3ccc(N4CCN(C)CC4)cc3)nc2n1-c1cccc(C(C)(C)O)n1 [AZD1775] + C[C@@H]1COCCN1C2=NC(=NC(=C2)C3(CC3)[S@](=N)(=O)C)C4=C5C=CNC5=NC=C4 [AZD6738] (first compound max 1 µM, partner max 10 µM) | 0.0248 | -0.0604 | -0.0611 | 0.794 | 0.944 | 0.821 | 0.851 | 0.801 | 0.373 | 0.787 | 0.786 | 0.464 | 0.816 | 0.771 | 0.331 | 0.605 | 0.883 | 0.822 | 0.441 | 0.602
2 | COc1cccc(OCCCN)c1-c1cc(Nc2cnc(C#N)cn2)n[nH]1 [Prexasertib] + Cc1cc2ncnn2cc1Nc1ncc2c(n1)n(C1CCOCC1)c(=O)n2C [AZD7648] (first compound max 1 µM, 7x7, partner max 10 µM) | -0.0315 | -0.0226 | -0.038 | 0.79 | 0.903 | 0.669 | 0.783 | 0.789 | 0.367 | 0.923 | 0.908 | 0.445 | 0.943 | 0.418 | 0.483 | 0.437 | 0.734 | 0.759 | 0.611 | 0.729
3 | CCc1c2c(nc3ccc(O)cc13)-c1cc3c(c(=O)n1C2)COC(=O)[C@]3(O)CC [SN-38] + CN(C)CCCOc1ccc(-c2ccc3ncc4c(c3c2)n(C2CCOCC2)c(=O)n4C)cn1 [AZD0156] (first compound max 0.3 µM, 7x7, partner max 1 µM) | 0.0219 | -0.0022 | -0.0858 | 0.928 | 0.673 | 0.284 | 0.509 | 0.821 | 0.187 | 0.826 | 0.937 | 0.259 | 0.802 | 0.785 | 0.474 | 0.154 | 0.845 | 0.928 | 0.827 | 0.391
4 | Cc1c2c(nn1C)CSCc1cc(n(C)n1)CSc1cc(c3ccccc3c1)OCCCc1c(C(=O)O)n(C)c3c-2c(Cl)ccc13 [AZD5991] + CC1(C)CCC(CN2CCN(c3ccc(C(=O)NS(=O)(=O)c4ccc(NCC5CCOCC5)c([N+](=O)[O-])c4)c(Oc4cnc5[nH]ccc5c4)c3)CC2)=C(c2ccc(Cl)cc2)C1 [Venetoclax] (first compound max 1 µM, 7x7, partner max 1 µM) | 0.107 | -0.0686 | -0.0506 | 0.391 | 0.871 | 0.841 | 0.997 | 0.938 | 0.243 | 0.282 | 1 | 0.425 | 0.228 | 0.968 | 0.143 | 0.169 | 0.964 | 0.151 | 0.83 | 0.913
5 | COc1cccc2c1C(=O)c1c(O)c3c(c(O)c1C2=O)C[C@@](O)(C(=O)CO)C[C@@H]3O[C@H]1C[C@H](N)[C@H](O)[C@H](C)O1 [Doxorubicin] + Cc1cc2ncnn2cc1Nc1ncc2c(n1)n(C1CCOCC1)c(=O)n2C [AZD7648] (first compound max 1 µM, 7x7, partner max 10 µM) | 0.0099 | -0.0114 | -0.0557 | 0.735 | 0.477 | 0.464 | 0.501 | 0.87 | 0.59 | 0.777 | 0.954 | 0.335 | 0.965 | 0.866 | 0.405 | 0.262 | 0.892 | 0.909 | 0.604 | 0.641
6 | Cc1cc2ncnn2cc1Nc1ncc2c(n1)n(C1CCOCC1)c(=O)n2C [AZD7648] + CCN(CCO)CCCOc1ccc2c(Nc3cc(CC(=O)Nc4cccc(F)c4)[nH]n3)ncnc2c1 [AZD2811] (first compound max 10 µM, 7x7, partner max 1 µM) | 0.0625 | 0.0201 | -0.0341 | 0.301 | 0.291 | 0.209 | 0.762 | 0.829 | 0.337 | 0.285 | 0.556 | 0.186 | 0.485 | 0.499 | 0.263 | 0.356 | 0.315 | 0.265 | 0.611 | 0.314
7 | CC(=O)c1c(C)c2cnc(Nc3ccc(N4CCNCC4)cn3)nc2n(C2CCCC2)c1=O [Palbociclib] + CC1(C)CCC(CN2CCN(c3ccc(C(=O)NS(=O)(=O)c4ccc(NCC5CCOCC5)c([N+](=O)[O-])c4)c(Oc4cnc5[nH]ccc5c4)c3)CC2)=C(c2ccc(Cl)cc2)C1 [Venetoclax] (first compound max 10 µM, 7x7, partner max 1 µM) | -0.0298 | -0.0385 | -0.107 | 0.0999 | 0.106 | 0.15 | 0.844 | 0.632 | 0.161 | 0.215 | 0.964 | 0.17 | 0.238 | 0.291 | 0.33 | 0.184 | 0.779 | 0.0637 | 0.295 | 0.164
